Measured values as given in EP4653437A2 (Innovo Therapeutics Inc., priority 2023, dated 2024).

Experiments:
[1] = biological target: T1, human 15-PGDH (Homo sapiens, UniProt P15428); test: Evaluation of 15-PGDH inhibitory activity (fluorescence enzyme assay, NAD+/PGE2); assay type: biochemical; conditions: human 15-PGDH enzyme, fluorescence Vmax
T1 construct: purchased R&D System 5660-DH
T1 sequence (P15428 1-266): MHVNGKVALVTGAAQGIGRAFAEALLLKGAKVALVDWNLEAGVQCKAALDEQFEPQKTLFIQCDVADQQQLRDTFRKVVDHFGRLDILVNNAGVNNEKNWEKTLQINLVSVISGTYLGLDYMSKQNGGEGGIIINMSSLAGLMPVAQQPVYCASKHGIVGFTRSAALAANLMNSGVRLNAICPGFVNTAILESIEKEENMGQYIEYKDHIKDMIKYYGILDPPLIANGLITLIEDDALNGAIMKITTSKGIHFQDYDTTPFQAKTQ
Method: 15-PGDH inhibition activity of Example compounds was measured as follows. 6.7 ng of human 15-PGDH (R&D System# 5660-DH) enzyme (10 µL) was added to a black 96 well plate, 60 µL of buffer (50 mM Tris-HCl, pH 7.5, 0.01% Tween 20) was added, and 10 µL of 200 µM β-Nicotinamide adenine dinucleotide sodium salt (Sigma, Cat# N0632-5G) was added. 10 µL of (10x) compound solution in DMSO was added and reacted for 10 minutes at room temperature.

[2] = test system: A549 cells; test: Measurement of PGE2-increasing activity in A549 cells (IL-1β stimulated, PGE2 quantified in supernatant); assay type: cell-based; conditions: Homo sapiens, 24 h; concentration of 1 µM of each compound; IL-1β treated A549 cells; read-out: Increased PGE2 production in A549 cells
Method in brief: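 PGE2 secreted into the supernatant was measured by immunoassay 24 h after treatment. Before treatment, A549 cells were cultured 24 h in 10% FBS F12K, washed, and placed in serum-free medium containing compound (DMSO 0.1% final) plus or minus IL-1β, incubated at 37 °C, 5% CO2.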

IC50 [1] | Compound | fold induction at 1 µM [2]
≤ 100 nM | CN(C)c1ncc(-c2cccc3c(C(=O)N4CCCCC4)cnn23)cc1C#N [Example 270, 2-(dimethylamino)-5-(3-(piperidine-1-carbonyl)pyrazolo[1,5-a]pyridin-7-yl)nicotinonitrile] | > 1.5
≤ 100 nM | O=C(c1cnn2c(-c3cnc(N4CCOC4=O)c(F)c3)cccc12)N1CCCCC1 [Example 323, 3-(3-fluoro-5-(3-(piperidine-1-carbonyl)pyrazolo[1,5-a]pyridin-7-yl)pyridin-2-yl)oxazolidin-2-one] | > 1.5
≤ 100 nM | O=C(c1ccc(-c2cccc3c(C(=O)N4CCCCC4)cnn23)cc1)N1CCNCC1 [Example 66, piperazin-1-yl(4-(3-(piperidine-1-carbonyl)pyrazolo[1,5-a]pyridin-7-yl)phenyl)methanone] | > 1.5
≤ 100 nM | Cc1nc(-c2cc(-c3cccc4c(C(=O)N5CCCCC5)cnn34)cc([N+](=O)[O-])c2)no1 [Example 330, (7-(3-(5-methyl-1,2,4-oxadiazol-3-yl)-5-nitrophenyl)pyrazolo[1,5-a]pyridin-3-yl)(piperidin-1-yl)methanone] | > 1.5
≤ 100 nM | O=C(c1ccc(-c2cccc3c(C(=O)N4CCCCC4)cnn23)cc1)N1CCC1 [Example 61, azetidin-1-yl(4-(3-(piperidine-1-carbonyl)pyrazolo[1,5-a]pyridin-7-yl)phenyl)methanone] | > 1.5
≤ 100 nM | O=C1CN(C(=O)c2cncc(-c3cccc4c(C(=O)N5CCCCC5)cnn34)c2)CC(=O)N1 [Example 204, 4-[5-[3-(piperidine-1-carbonyl)pyrazolo[1,5-a]pyridin-7-yl]pyridine-3-carbonyl]piperazine-2,6-dione] | < 1.5
≤ 100 nM | O=C(c1cnn2c(-c3cc(F)nc(F)c3)cccc12)N1CCCCC1 [Example 273, (7-(2,6-difluoropyridin-4-yl)pyrazolo[1,5-a]pyridin-3-yl)(piperidin-1-yl)methanone] | > 1.5
≤ 100 nM | COCCC(=O)Nc1ccc(-c2cccc3c(C(=O)N4CCCCC4)cnn23)cn1 [Example 103, 3-methoxy-N-(5-(3-(piperidine-1-carbonyl)pyrazolo[1,5-a]pyridin-7-yl)pyridin-2-yl)propanamide] | < 1.5
≤ 100 nM | O=C(Nc1cccnc1)c1ccc(-c2cccc3c(C(=O)N4CCCCC4)cnn23)cn1 [Example 87, 5-(3-(piperidine-1-carbonyl)pyrazolo[1,5-a]pyridin-7-yl)-N-(pyridin-3-yl)picolinamide] | < 1.5
≤ 100 nM | O=C(c1cnn2c(-c3ccc([N+](=O)[O-])cc3)cccc12)N1CCC(F)CC1 [Example 157, (4-fluoropiperidin-1-yl)(7-(4-nitrophenyl)pyrazolo[1,5-a]pyridin-3-yl)methanone] | > 1.5
≤ 100 nM | O=C(c1cnn2c(-c3ccccc3Cl)cccc12)N1CCCCC1 [Example 264, (7-(2-chlorophenyl)pyrazolo[1,5-a]pyridin-3-yl)(piperidin-1-yl)methanone] | > 1.5
≤ 100 nM | O=C(c1cnn2c(-c3ccc(-c4noc(C(F)(F)F)n4)cc3)cccc12)N1CCCCC1 [Example 361, 1-piperidyl-[7-[4-[5-(trifluoromethyl)-1,2,4-oxadiazol-3-yl]phenyl]pyrazolo[1,5-a]pyridin-3-yl]methanone] | > 1.5
≤ 100 nM | O=C1NCc2ccc(-c3cccc4c(C(=O)N5CCCC(F)(F)C5)cnn34)cc21 [Example 382, 6-(3-(3,3-difluoropiperidine-1-carbonyl)pyrazolo[1,5-a]pyridin-7-yl)isoindolin-1-one] | > 1.5
≤ 100 nM | O=C(c1cnn2c(-c3cnc(-c4n[nH]c(=O)o4)c(F)c3)cccc12)N1CCCCC1 [Example 373, 5-[3-fluoro-5-[3-(piperidine-1-carbonyl)pyrazolo[1,5-a]pyridin-7-yl]-2-pyridyl]-3H-1,3,4-oxadiazol-2-one] | > 1.5
≤ 100 nM | O=C1NCc2ccc(-c3cccc4c(C(=O)N5CC6(CCC6)C5)cnn34)cc21 [Example 390, 6-(3-(2-azaspiro[3.3]heptane-2-carbonyl)pyrazolo[1,5-a]pyridin-7-yl)isoindolin-1-one] | > 1.5
≤ 100 nM | CC(C)N1CCN(C(=O)c2cncc(-c3cccc4c(C(=O)N5CCCCC5)cnn34)c2)CC1 [Example 50, (4-isopropylpiperazin-1-yl)(5-(3-(piperidine-1-carbonyl)pyrazolo[1,5-a]pyridin-7-yl)pyridin-3-yl)methanone] | > 1.5
≤ 100 nM | COc1ccc(-c2cccc3c(C(=O)N4CCCCC4)cnn23)cc1C(F)(F)F [Example 20, (7-(4-methoxy-3-(trifluoromethyl)phenyl)pyrazolo[1,5-a]pyridin-3-yl)(piperidin-1-yl)methanone] | > 1.5
≤ 100 nM | CC1CCCN(C(=O)c2cnn3c(-c4ccc5c(c4)C(=O)NC5)cccc23)C1 (centres unmarked) [Example 387, 6-(3-(3-methylpiperidine-1-carbonyl)pyrazolo[1,5-a]pyridin-7-yl)isoindolin-1-one] | > 1.5
≤ 100 nM | O=C(c1cnn2c(-c3ccnc(N4CC(F)C4)c3)cccc12)N1CCCCC1 [Example 257, (7-(2-(3-fluoroazetidin-1-yl)pyridin-4-yl)pyrazolo[1,5-a]pyridin-3-yl)(piperidin-1-yl)methanone] | < 1.5
≤ 100 nM | O=C(c1cnn2c(-c3ccc4cn[nH]c(=O)c4c3)cccc12)N1CCCCC1 [Example 224, 7-(3-(piperidine-1-carbonyl)pyrazolo[1,5-a]pyridin-7-yl)phthalazin-1(2H)-one] | > 1.5
≤ 100 nM | O=C(c1cnn2c(-c3ccc(-c4noc(=O)[nH]4)cc3F)cccc12)N1CCCCC1 [Example 295, 3-[3-fluoro-4-[3-(piperidine-1-carbonyl)pyrazolo[1,5-a]pyridin-7-yl]phenyl]-4H-1,2,4-oxadiazol-5-one] | > 1.5
≤ 100 nM | O=C(c1cnn2c(-c3cnc(-c4nnc(C(F)F)[s+]4[O-])nc3)cccc12)N1CCCCC1 (centres unmarked) [Example 404, [7-[2-[5-(difluoromethyl)-1-oxo-1,3,4-thiadiazol-2-yl]pyrimidin-5-yl]pyrazolo[1,5-a]pyridin-3-yl]-(1-piperidyl)methanone] | > 1.5
≤ 100 nM | CNC(=O)c1ncc(-c2cccc3c(C(=O)N4CCCCC4)cnn23)cc1Cl [Example 262, 3-chloro-N-methyl-5-[3-(piperidine-1-carbonyl)pyrazolo[1,5-a]pyridin-7-yl]pyridine-2-carboxamide] | > 1.5
≤ 100 nM | N#CCCNC(=O)c1cccc(-c2cccc3c(C(=O)N4CCCCC4)cnn23)c1 [Example 36, N-(2-cyanoethyl)-3-(3-(piperidine-1-carbonyl)pyrazolo[1,5-a]pyridin-7-yl)benzamide] | > 1.5
≤ 100 nM | O=C(c1cnn2c(-c3ccc4cc[nH]c(=O)c4c3)cccc12)N1CCCCC1 [Example 134, 7-(3-(piperidine-1-carbonyl)pyrazolo[1,5-a]pyridin-7-yl)isoquinolin-1(2H)-one] | > 1.5
